Data reported in patent US9944645B2, “Imidazotriazines and imidazopyrimidines as kinase inhibitors” (Incyte Holdings Corporation, priority 2006, dated 2018).

These molecules were tested against c-Met kinase (h-Met; histidine-tagged c-Met catalytic domain fusion protein) (Homo sapiens (Human), UniProt P08581) (assay: In Vitro c-Met Kinase Enzyme Assays). Settings: phosphorylation of poly Glu-Tyr, 5 μM ATP, 25 minutes at 30° C.
Assay type: biochemical
Method in brief: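 His-tagged c-Met catalytic domain reacted 25 min at 30° C, within the linear initial-rate range. Phosphotyrosine detected by ELISA with peroxidase-labeled anti-phospho-tyrosine antibody and TMB, OD read at 450 nm (540 nm correction); IC50 from curve fit.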

c-Met kinase (h-Met; histidine-tagged c-Met catalytic domain fusion protein), sequence (P08581 1078-1345): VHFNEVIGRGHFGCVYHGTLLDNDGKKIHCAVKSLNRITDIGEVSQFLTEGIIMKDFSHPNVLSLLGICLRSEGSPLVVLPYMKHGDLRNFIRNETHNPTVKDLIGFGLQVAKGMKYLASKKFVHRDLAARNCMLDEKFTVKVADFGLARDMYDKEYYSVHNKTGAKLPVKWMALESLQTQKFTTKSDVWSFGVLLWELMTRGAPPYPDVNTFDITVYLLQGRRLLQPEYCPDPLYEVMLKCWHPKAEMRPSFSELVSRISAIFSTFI

**Q.** How did the IC50 turn out when `CC(COc1ccccn1)NC(=O)C1(c2ccc(-c3cnc4ncc(C5(c6ccc7ncccc7c6)CC5)n4c3)cc2)CC1` (stereo not shown) [Example 189, N-[1-Methyl-2-(pyridin-2-yloxy)ethyl]-1-{4-[3-(1-quinolin-6-ylcyclopropyl)imidazo[1,2-a]pyrimidin-6-yl]phenyl}cyclopropanecarboxamide] was run?
**A.** < 500 nM

**Q.** `O=C(NC1CCC1)c1ccc(-c2cnc3ncc(C4(c5ccc6ncccc6c5)CC4)n3n2)cc1` [Example 108, N-Cyclobutyl-4-[7-(1-quinolin-6-ylcyclopropyl)imidazo[1,2-b][1,2,4]triazin-2-yl]benzamide] was tested. Which IC50 did it give?
**A.** < 500 nM

**Q.** Which IC50 does the source give for `CN1CCCC1CCNC(=O)c1ccc(-c2cnc3ncc(Cc4ccc5ncccc5c4)n3n2)cc1F` (stereo not shown) [Example 150, 2-Fluoro-N-[2-(1-methylpyrrolidin-2-yl)ethyl]-4-[7-(quinolin-6-ylmethyl)imidazo[1,2-b][1,2,4]triazin-2-yl]benzamide] here?
**A.** < 500 nM

**Q.** Which IC50 does the source give for `NC(=O)Cn1cc(-c2cnc3ncc(Cc4ccc5ncccc5c4)n3n2)cn1` [Example 140, 2-{4-[7-(Quinolin-6-ylmethyl)imidazo[1,2-b][1,2,4]triazin-2-yl]-1H-pyrazol-1-yl}acetamide] here?
**A.** < 500 nM

**Q.** How did the IC50 turn out when `COCC(C)NC(=O)c1ccc(-c2cnc3ncc(C4(c5ccc6ncccc6c5)CC4)n3c2)cc1F` (stereo not shown) [Example 163, 2-Fluoro-N-(2-methoxy-1-methylethyl)-4-[3-(1-quinolin-6-ylcyclopropyl)imidazo[1,2-a]pyrimidin-6-yl]benzamide] was run?
**A.** < 500 nM

**Q.** With `O=C(NCc1ccccn1)c1ccc(-c2cnc3ncc(C4(c5ccc6ncccc6c5)CC4)n3c2)cc1F` [Example 165, 2-Fluoro-N-(pyridin-2-ylmethyl)-4-[3-(1-quinolin-6-ylcyclopropyl)imidazo[1,2-a]pyrimidin-6-yl]benzamide] as the molecule, how does the IC50 read?
**A.** < 500 nM

**Q.** `O=C(NC1CCN(c2ccccn2)C1)c1ccc(-c2cnc3ncc(C4(c5ccc6ncccc6c5)CC4)n3c2)cc1` (stereo not shown) [Example 37, N-(1-Pyridin-2-ylpyrrolidin-3-yl)-4-[3-(1-quinolin-6-ylcyclopropyl)imidazo[1,2-a]pyrimidin-6-yl]benzamide] was tested. Which IC50 did it give?
**A.** < 500 nM

**Q.** Which IC50 does the source give for `O=C(NC1CC1)c1ccc(-c2cnc3ncc(Cc4ccc5ncccc5c4)n3n2)cc1F` [Example 123, N-Cyclopropyl-2-fluoro-4-[7-(quinolin-6-ylmethyl)imidazo[1,2-b][1,2,4]triazin-2-yl]benzamide] here?
**A.** < 500 nM

**Q.** How did the IC50 turn out when `CC(C)[C@H](NC(=O)c1ccc(-c2cnc3ncc(C4(c5ccc6ncccc6c5)CC4)n3c2)cc1Cl)C(=O)N(C)C` [Example 181, 2-Chloro-N-(1S)-1-[(dimethylamino)carbonyl]-2-methylpropyl-4-[3-(1-quinolin-6-ylcyclopropyl)imidazo[1,2-a]pyrimidin-6-yl]benzamide] was run?
**A.** < 500 nM

**Q.** Which IC50 does the source give for `CNC(=O)c1ccc(-c2cnc3ncc(C4(c5ccc6ncccc6c5)CC4)n3c2)cc1Cl` [Example 174, 2-Chloro-N-methyl-4-[3-(1-quinolin-6-ylcyclopropyl)imidazo[1,2-a]pyrimidin-6-yl]benzamide] here?
**A.** < 500 nM

**Q.** For `NC(=O)c1ccc(-c2cnc3ncc(C4(c5ccc6ncccc6c5)CC4)n3n2)cc1F` [Example 104, 2-Fluoro-4-(7-(1-(quinolin-6-yl)cyclopropyl)imidazo[1,2-b][1,2,4]triazin-2-yl)benzamide], which IC50 is on record?
**A.** < 500 nM

**Q.** `COc1ccc(C2(c3cnc4ncc(-c5ccc(F)cc5)nn34)CC2)cc1` [Example 2, 2-(4-Fluorophenyl)-7-[1-(4-methoxyphenyl)cyclopropyl]imidazo[1,2-b]-[1,2,4]-triazine] was tested. Which IC50 did it give?
**A.** < 500 nM

**Q.** How did the IC50 turn out when `CC(COc1ccccn1)NC(=O)c1ccc(-c2cnc3ncc(C4(c5ccc6ncccc6c5)CC4)n3c2)cc1` (stereo not shown) [Example 41, N-[1-Methyl-2-(pyridin-2-yloxy)ethyl]-4-[3-(1-quinolin-6-ylcyclopropyl)imidazo[1,2-a]pyrimidin-6-yl]benzamide] was run?
**A.** < 500 nM

**Q.** With `c1cnc2ccc(C3(c4cnc5ncc(-c6ccc(-n7ccnc7)cc6)nn45)CC3)cc2c1` [Example 99, 6-(1-{2-[4-(1H-Imidazol-1-yl)phenyl]imidazo[1,2-b][1,2,4]triazin-7-yl}cyclopropyl)-quinoline] as the molecule, how does the IC50 read?
**A.** < 500 nM

**Q.** With `CN(C)C(=O)c1ccc(-c2cnc3ncc(C4(c5ccc6ncccc6c5)CC4)n3c2)cc1` [Example 30, N,N-Dimethyl-4-[3-(1-quinolin-6-ylcyclopropyl)imidazo[1,2-a]pyrimidin-6-yl]benzamide] as the molecule, how does the IC50 read?
**A.** < 500 nM

**Q.** With `O=C(c1ccc(-c2cnc3ncc(C4(c5ccc6ncccc6c5)CC4)n3c2)cc1F)N1CC[C@H](F)C1` [Example 164, 6-{1-[6-(3-Fluoro-4-[(3S)-3-fluoropyrrolidin-1-yl]carbonylphenyl)imidazo[1,2-a]pyrimidin-3-yl]cyclopropyl}quinoline] as the molecule, how does the IC50 read?
**A.** < 500 nM

**Q.** `C[C@@H](NC(=O)c1ccc(-c2cnc3ncc(C4(c5ccc6ncccc6c5)CC4)n3c2)cn1)C(=O)N(C)C` [Example 62, N-[(1R)-2-(Dimethylamino)-1-methyl-2-oxoethyl]-5-[3-(1-quinolin-6-ylcyclopropyl)imidazo[1,2-a]pyrimidin-6-yl]pyridine-2-carboxamide] was tested. Which IC50 did it give?
**A.** < 500 nM

**Q.** Which IC50 does the source give for `O=C(NC1CCN(c2ccccn2)C1)c1ccc(-c2cnc3ncc(C4(c5ccc6ncccc6c5)CC4)n3c2)cc1F` (stereo not shown) [Example 167, 2-Fluoro-N-(1-pyridin-2-ylpyrrolidin-3-yl)-4-[3-(1-quinolin-6-ylcyclopropyl)imidazo[1,2-a]pyrimidin-6-yl]benzamide] here?
**A.** < 500 nM

**Q.** `O=C(NC1CC1)c1ccc(-c2cnc3ncc(C4(c5ccc6ncccc6c5)CC4)n3n2)cc1F` [Example 101, N-Cyclopropyl-2-fluoro-4-[7-(1-quinolin-6-ylcyclopropyl)imidazo[1,2-b][1,2,4]triazin-2-yl]benzamide] was tested. Which IC50 did it give?
**A.** < 500 nM

**Q.** How did the IC50 turn out when `CN(C)C(=O)[C@@H](NC(=O)c1ccc(-c2cnc3ncc(C4(c5ccc6ncccc6c5)CC4)n3c2)cc1)C(C)(C)C` [Example 44, N-(1S)-1-[(Dimethylamino)carbonyl]-2,2-dimethylpropyl-4-[3-(1-quinolin-6-ylcyclopropyl)imidazo[1,2-a]pyrimidin-6-yl]benzamide] was run?
**A.** < 500 nM

**Q.** With `COC(=O)c1ccc(-c2cnc3ncc(Sc4ccc5ncccc5c4)n3n2)cc1F` [Example 13, Methyl 2-fluoro-4-[7-(quinolin-6-ylthio)imidazo[1,2-b][1,2,3]triazin-2-yl]benzoate] as the molecule, how does the IC50 read?
**A.** < 500 nM

**Q.** Which IC50 does the source give for `CC(NC(=O)c1ccc(-c2cnc3ncc(C4(c5ccc6ncccc6c5)CC4)n3c2)cc1Cl)c1ccccn1` (stereo not shown) [Example 177, 2-Chloro-N-(1-pyridin-2-ylethyl)-4-[3-(1-quinolin-6-ylcyclopropyl)imidazo[1,2-a]pyrimidin-6-yl]benzamide] here?
**A.** < 500 nM

**Q.** `c1cnc2ccc(C3(c4cnc5ncc(-n6cccn6)cn45)CC3)cc2c1` [Example 22, 6-{1-[6-(1H-Pyrazol-1-yl)imidazo[1,2-a]pyrimidin-3-yl]cyclopropyl}quinoline] was tested. Which IC50 did it give?
**A.** < 500 nM

**Q.** For `COCC1(NC(=O)c2ccc(-c3cnc4ncc(C5(c6ccc7ncccc7c6)CC5)n4n3)cc2F)CC1` [Example 103, 2-Fluoro-N-[1-(methoxymethyl)cyclopropyl]-4-[7-(1-quinolin-6-ylcyclopropyl)imidazo[1,2-b][1,2,4]triazin-2-yl]benzamide], which IC50 is on record?
**A.** < 500 nM

**Q.** How did the IC50 turn out when `O=C(NC1CCC1)c1ccc(-c2cnc3ncc(C4(c5ccc6ncccc6c5)CC4)n3c2)cc1` [Example 28, N-Cyclobutyl-4-[3-(1-quinolin-6-ylcyclopropyl)imidazo[1,2-a]pyrimidin-6-yl]benzamide] was run?
**A.** < 500 nM
